Test: optimization of highly concentrated dipyridamole solution for liquid capsule feed (solubility in solvent systems)
Type: physicochemical
Conditions: drug solution in PEG 400
Method: A model drug, dipyridamole, was chosen to test the suitability of this system to provide immediate and extended drug release. Its fluoresce colour and ease of detection allows focusing on the development process. It was decided that the drug solution PEG 400 (10 mg/ml) is the maximum concentration that can be readily prepared.

SMILES: OCCN(CCO)c1nc(N2CCCCC2)c2nc(N(CCO)CCO)nc(N3CCCCC3)c2n1 [dipyridamole]
- maximum concentration that can be readily prepared: 10 mg/mL

— patent US12714675B2, “Solid dosage form production” (UNIVERSITY OF LANCASHIRE, priority 2016, dated 2026)
